Laboratory results as given in patent US20240109880A1 (Insilico Medicine IP Limited, priority 2021, published 2024).
Values after ≈ are worked out from the molar mass of the structure shown.

Assays:
[1] = Kinetic solubility in 50 mM phosphate buffer (pH 7.4); type: physicochemical; settings: for solubility kinetic at 24 h: aqueous buffer, kinetic from dmso stock, 50 mM phosphate buffer pH 7.4, 24 hours at room temperature
Description: 10 μL of 10 mM in DMSO of test and control compounds was added into lower chambers of whatman miniuniprep vials, respectively. 490 μL of 50 mM PB (pH 7.4) was added into lower chambers of the whatman miniuniprep vials, respectively. The solubility samples were vortexted for at least 2 minutes. The miniuniprep vials were shaken on a shaker for 24 hours at room temperature at the speed of 800 rpm and then centrifuged for 20 minutes (eg. 4000 rpm). The miniunipreps were compressed to prepare the filtrates for injection into HPLC system to calculate the concentration with standard curve.

[2] = target: KAT6A (Homo sapiens (Human), UniProt Q92794); experiment: KAT6A Biochemical Assay (radiometric 384-well, [3H]-Ac-CoA, biotinylated H4(1-30) peptide); settings: 5 nM KAT6A enzyme solution (2×), 60 min reaction at room temperature
Description: Inhibition of KAT6A enzymatic activity by test compounds was determined using a radiometric 384-well format assay. A 10-point serial dilution of the test compounds were conducted in DMSO and then a volume of 200 nL was transferred into 384-well assay plate by Echo (Labcyte). 10 μL of 2× enzyme solution (5 nM KAT6A (Active Motif) in assay buffer (50 mM Tris-HCl pH 8.0, 50 mM KCl, 0.1 mM EDTA, 5% glycerol, 1 mM DTT)) was dispensed into assay plate except for low control wells, in which 10 μL of assay buffer was transferred. The plate was incubated at room temperature for 15 min before addition of 10 μL of 2×[^3H]-acetyl coenzyme A (Ac-CoA) and substrate peptide mix solution (500 nM (KAT6A) [^3H]-Ac-CoA (PerkinElmer) and 800 nM (KAT6A) biotinylated H4(1-30) peptide (GL Biochem) in assay buffer) to each well to start reaction. The plate was incubated at room temperature for 60 min (KAT6A), and then the reaction was stopped by adding 10 μL of stop solution (cold Ac-CoA (Cayman) in 1× assay buffer). 25 μL of reaction in each well was transferred to Flashplate (PerkinElmer) and incubated for another 1 hour at room temperature. The plate was read on Microbeta and the inhibition percentage of each compound treated well was calculated based on the equation in h %=(Max−sample)/(Max−Min)*100 where Max is signal from high control wells with enzyme, and Min is signal from low control wells with assay buffer only. The in h % data were further fit in XL-Fit to obtain IC50 values using a 4-parameter logistic (4PL) sigmoidal curve model.

[3] = Permeability in Caco-2 Assay; type: in vitro ADME; settings: human, pH 7.4, 2 hours; for efflux ratio at 2 h, 2 μM: Caco-2, 2.00 μM bi-directionally; for Papp A→B at 2 h, 2 μM: Caco-2, 2.00 μM, pH 7.40
Description: (§1) Permeability of test compounds was determined in Caco-2 Assay. Caco-2 cells purchased from ATCC were seeded onto […] (PET) in 96-well Corning Insert plates at 1×10^5 cells/cm2, and refreshed medium every 4-5 days until to the 21st to 28th day for confluent cell monolayer formation. The transport buffer in the study was HBSS with 10.0 mM HEPES at pH 7.40±0.05. Test compound was tested at 2.00 μM bi-directionally in duplicate. Digoxin was tested at 10.0 μM bi-directionally in duplicate, while nadolol and metoprolol were tested at 2.00 μM in A to B direction in duplicate. Final DMSO concentration was adjusted to less than 1%. The plate was incubated for 2 hours in CO2 incubator at 37±1° C., with 5% CO2 at saturated humidity without shaking. And all samples after mixed with acetonitrile containing internal standard were centrifuged at 3200×g for 10 min. For nadolol and metoprolol, 200 μL supernatant solution was diluted with 600 μL ultra-pure water for LC-MS/MS analysis. For digoxin and test compounds, 200 μL supernatant solution was diluted with 200 μL ultra-pure water for LC-MS/MS analysis. Concentrations of test and control compounds in starting solution, donor solution, and receiver solution were quantified by LC-MS/MS methodologies, using peak area ratio of analyte/internal standard. After transport assay, lucifer yellow rejection assay was applied to determine the Caco-2 cell monolayer integrity.

[4] = system: Caco-2 cells; experiment: Permeability in Caco-2 Assay; type: in vitro ADME; settings: comparison from Table 4 (vs compound 47 or vs PF-9363)
Description: as §1

Sequence of KAT6A (Q92794 whole entry): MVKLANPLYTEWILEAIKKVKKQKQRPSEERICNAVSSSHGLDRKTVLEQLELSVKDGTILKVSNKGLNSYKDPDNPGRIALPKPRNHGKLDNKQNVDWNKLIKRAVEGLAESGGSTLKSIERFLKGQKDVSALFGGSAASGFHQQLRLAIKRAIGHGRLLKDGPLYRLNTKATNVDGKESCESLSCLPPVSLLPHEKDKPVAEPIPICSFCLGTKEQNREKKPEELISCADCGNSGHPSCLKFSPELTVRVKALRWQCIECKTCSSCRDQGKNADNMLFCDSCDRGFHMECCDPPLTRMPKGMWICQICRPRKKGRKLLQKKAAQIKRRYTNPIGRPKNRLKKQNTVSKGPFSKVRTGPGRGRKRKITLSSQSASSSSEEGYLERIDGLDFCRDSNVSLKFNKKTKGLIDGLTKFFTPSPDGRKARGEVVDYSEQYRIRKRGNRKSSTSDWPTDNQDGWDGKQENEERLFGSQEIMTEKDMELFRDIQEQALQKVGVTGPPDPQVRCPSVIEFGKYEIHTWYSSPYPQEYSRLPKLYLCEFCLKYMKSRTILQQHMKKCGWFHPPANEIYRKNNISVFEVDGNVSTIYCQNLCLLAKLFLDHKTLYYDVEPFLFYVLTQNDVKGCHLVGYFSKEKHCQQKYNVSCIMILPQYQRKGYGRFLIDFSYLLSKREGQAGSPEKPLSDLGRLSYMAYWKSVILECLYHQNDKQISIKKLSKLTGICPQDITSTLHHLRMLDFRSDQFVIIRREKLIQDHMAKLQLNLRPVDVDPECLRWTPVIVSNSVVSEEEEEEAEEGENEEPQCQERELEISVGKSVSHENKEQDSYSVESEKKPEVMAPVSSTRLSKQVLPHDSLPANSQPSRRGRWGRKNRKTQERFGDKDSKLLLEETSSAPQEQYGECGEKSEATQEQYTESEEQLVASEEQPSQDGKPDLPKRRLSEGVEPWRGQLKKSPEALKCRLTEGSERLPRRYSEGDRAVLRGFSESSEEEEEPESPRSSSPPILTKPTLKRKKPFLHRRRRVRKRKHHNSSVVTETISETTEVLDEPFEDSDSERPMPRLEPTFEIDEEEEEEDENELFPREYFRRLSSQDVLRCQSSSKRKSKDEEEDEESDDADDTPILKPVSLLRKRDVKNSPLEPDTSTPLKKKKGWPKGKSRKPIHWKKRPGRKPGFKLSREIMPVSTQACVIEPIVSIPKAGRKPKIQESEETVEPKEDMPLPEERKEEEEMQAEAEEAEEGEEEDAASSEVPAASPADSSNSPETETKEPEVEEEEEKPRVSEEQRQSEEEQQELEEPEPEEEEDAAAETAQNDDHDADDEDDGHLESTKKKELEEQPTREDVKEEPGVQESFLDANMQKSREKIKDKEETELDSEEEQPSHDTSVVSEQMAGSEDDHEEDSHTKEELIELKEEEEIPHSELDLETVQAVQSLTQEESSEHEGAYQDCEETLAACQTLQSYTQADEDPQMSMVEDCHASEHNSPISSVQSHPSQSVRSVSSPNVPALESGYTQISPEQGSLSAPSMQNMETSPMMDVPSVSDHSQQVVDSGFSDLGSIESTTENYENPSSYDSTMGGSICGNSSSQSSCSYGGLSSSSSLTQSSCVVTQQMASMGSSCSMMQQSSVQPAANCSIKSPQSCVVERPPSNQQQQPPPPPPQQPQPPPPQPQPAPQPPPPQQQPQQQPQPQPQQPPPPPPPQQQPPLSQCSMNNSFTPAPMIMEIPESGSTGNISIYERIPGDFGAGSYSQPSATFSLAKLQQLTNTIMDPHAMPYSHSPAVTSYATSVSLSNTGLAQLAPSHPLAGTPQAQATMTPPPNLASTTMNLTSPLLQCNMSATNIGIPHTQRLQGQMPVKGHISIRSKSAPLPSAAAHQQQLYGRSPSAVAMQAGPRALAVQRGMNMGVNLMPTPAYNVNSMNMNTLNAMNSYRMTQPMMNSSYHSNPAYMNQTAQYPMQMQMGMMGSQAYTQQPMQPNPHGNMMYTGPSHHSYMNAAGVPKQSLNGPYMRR

SMILES: COc1cccc(OC)c1S(=O)(=O)Nc1noc2cc(Cn3cccn3)c3c(c12)OCCC3 [Compound 14, N-(5-((1H-pyrazol-1-yl)methyl)-3,4-dihydro-2H-chromeno [8,7-d]isoxazol-9-yl)-2,6-dimethoxybenzenesulfonamide]
- solubility kinetic at 24 h [1]: 16.1 µM (≈ 7.58 µg/mL)
- IC50 [2]: < 10 nM
- efflux ratio at 2 h, 2 μM [3]: 59.6
- Papp A→B at 2 h, 2 μM [3]: 0.439 ×10⁻⁶ cm/s

SMILES: COc1cccc(OC)c1S(=O)(=O)Nc1noc2cc(Oc3ccccn3)c3c(c12)OCCC3 [Compound 24, 2,6-dimethoxy-N-(5-(pyridin-2-yloxy)-3,4-dihydro-2H-chromeno[8,7-d]isoxazol-9-yl)benzenesulfonamide]
- solubility kinetic at 24 h [1]: 189 µM (≈ 91.4 µg/mL)
- IC50 [2]: < 10 nM
- efflux ratio at 2 h, 2 μM [3]: 3.2
- Papp A→B at 2 h, 2 μM [3]: 12.9 ×10⁻⁶ cm/s

SMILES: COc1cccc(OC)c1S(=O)(=O)Nc1noc2cc(Oc3nccs3)c3c(c12)OCCC3 [Compound 35, 2,6-dimethoxy-N-(5-(thiazol-2-yloxy)-3,4-dihydro-2H-chromeno[8,7-d]isoxazol-9-yl)benzenesulfonamide]
- solubility kinetic at 24 h [1]: 165 µM (≈ 80.8 µg/mL)
- kinetic solubility compared with the otherwise identical compound having X group as carbon ([1]; comparison from Table 3): improved kinetic solubility
- IC50 [2]: < 10 nM
- permeability compared with a reference compound [4]: improved permeability
- Papp A→B at 2 h, 2 μM [3]: 8.59 ×10⁻⁶ cm/s

SMILES: COc1cccc(OC)c1S(=O)(=O)Nc1noc2cc(Cc3ccccn3)c3c(c12)OCCC3 [Compound 46, 2,6-dimethoxy-N-(5-(pyridin-2-ylmethyl)-3,4-dihydro-2H-chromeno[8,7-d]isoxazol-9-yl)benzenesulfonamide]
- solubility kinetic at 24 h [1]: 3.34 µM (≈ 1.61 µg/mL)
- IC50 [2]: < 10 nM
- efflux ratio at 2 h, 2 μM [3]: 15.3
- Papp A→B at 2 h, 2 μM [3]: 2.66 ×10⁻⁶ cm/s

SMILES: COc1cccc(OC)c1S(=O)(=O)Nc1noc2cc(Cc3nccs3)c3c(c12)OCCC3 [Compound 47]
- solubility kinetic at 24 h [1]: 12.1 µM (≈ 5.9 µg/mL)
- IC50 [2]: < 10 nM
- efflux ratio at 2 h, 2 μM [3]: 12.3
- Papp A→B at 2 h, 2 μM [3]: 3.53 ×10⁻⁶ cm/s

SMILES: COc1ccccc1S(=O)(=O)Nc1noc2cc(Oc3nccs3)c3c(c12)OCCCC3 [Compound 63]
- IC50 [2]: < 10 nM
- efflux ratio at 2 h, 2 μM [3]: 2.88
- Papp A→B at 2 h, 2 μM [3]: 6.48 ×10⁻⁶ cm/s

SMILES: COc1cc(C)nc(OC)c1S(=O)(=O)Nc1noc2cc(Oc3nccs3)c3c(c12)OCCCC3 [Compound 64]
- IC50 [2]: < 10 nM
- efflux ratio at 2 h, 2 μM [3]: 2.82
- Papp A→B at 2 h, 2 μM [3]: 9 ×10⁻⁶ cm/s

SMILES: COc1cccc(OC)c1S(=O)(=O)Nc1noc2cc(Sc3nccs3)cc(OC)c12 [Compound 66, 2,6-dimethoxy-N-(4-methoxy-6-(thiazol-2-ylthio)benzo[d]isoxazol-3-yl)benzenesulfonamide]
- IC50 [2]: < 10 nM
- efflux ratio at 2 h, 2 μM [3]: 4.25
- Papp A→B at 2 h, 2 μM [3]: 6.83 ×10⁻⁶ cm/s

SMILES: COc1ccccc1S(=O)(=O)Nc1noc2cc(Sc3nccs3)cc(OC)c12 [Compound 67, 2-methoxy-N-(4-methoxy-6-(thiazol-2-ylthio)benzo[d]isoxazol-3-yl)benzenesulfonamide]
- IC50 [2]: 10 to 100 nM
- efflux ratio at 2 h, 2 μM [3]: 1.4
- Papp A→B at 2 h, 2 μM [3]: 10.9 ×10⁻⁶ cm/s

SMILES: COc1cc(C)nc(OC)c1S(=O)(=O)Nc1noc2cc(Sc3nccs3)cc(OC)c12 [Compound 68, 2,4-dimethoxy-N-(4-methoxy-6-(thiazol-2-ylthio)benzo[d]isoxazol-3-yl)-6-methylpyridine-3-sulfonamide]
- IC50 [2]: 10 to 100 nM
- efflux ratio at 2 h, 2 μM [3]: 9.74
- Papp A→B at 2 h, 2 μM [3]: 2.29 ×10⁻⁶ cm/s
